This note sets out measurements from patent US7741323B2, “Indene derivatives and process for the preparation thereof” (Korea Research Institute of Chemical Technology, priority 2004, dated 2010).

For one data set, the target named is T1, human PPARγ (Homo sapiens, UniProt P37231).
T1 construct: expressed in transfected cells; host or cells: NIH/3T3 cells (mouse fibroblasts)
T1 sequence (P37231 238-503 limits assumed): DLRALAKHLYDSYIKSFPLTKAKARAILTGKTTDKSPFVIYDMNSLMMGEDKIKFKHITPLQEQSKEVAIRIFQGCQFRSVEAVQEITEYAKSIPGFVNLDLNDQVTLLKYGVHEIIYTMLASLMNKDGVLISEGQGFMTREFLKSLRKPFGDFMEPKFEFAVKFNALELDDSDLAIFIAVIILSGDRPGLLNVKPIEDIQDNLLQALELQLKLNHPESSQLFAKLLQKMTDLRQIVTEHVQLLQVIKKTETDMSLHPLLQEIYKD
Description: PPARγ activation test (GAL-4/luciferase reporter in NIH/3T3 cell). The data set is classed as cell-based. The note with it: GAL-4/human PPARγ LBD luciferase reporter, 24 hrs incubation. As for the experimental part: The activity for PPARγ activation was examined as follows.
The vector fused with the ligand binding domain of a human PPARγ gene and the DNA binding site of a yeast GAL-4 gene, and luciferase reporter vector were simultaneously transfected in NIH/3T3 cell. The cells were cultured for 24 hrs. The solution containing the cells at a concentration of 2×10^4 cells/well was placed on a 96-well plate. Then, each of the test compounds of the present invention or the control group without test compounds was added thereto. After incubating for 24 hrs, the cells were subjected to lysis.
On the technique in general: In a reporter assay the amount or activity of a reporter protein is the signal.

A short description of data set [1]: Adverse side effects check (weight, heart weight, liver weight, GPT/GOT) in high fat diet C57/BL6J mice. The data set is classed as in vivo. The conditions noted are these: high fat diet C57/BL6J mice, oral administration for 14 days.
Description: To check possible adverse side effects caused by the administration of the compound, the weight, heart weight and liver weight of each mouse were measured. GPT and GOT values were also calculated by employing a kit available in the market.

Broadly, the EC50 is the concentration giving half of the maximal effect. Low readings indicate a more potent agent, high ones a less potent agent. By melting point is commonly meant the temperature of the solid-liquid transition. `CC(C)OC(=O)C1=C(c2ccccc2)c2ccc(OCCN3CCOCC3)cc2/C1=[N+](/C)[O-]` [Compound 8] showed a melting point of 79 to 81 °C. This compound yielded an EC50 on human PPARγ of 25 nM.
As to `CCc1ccc(CCOc2ccc3c(c2)/C(=[N+](/C)[O-])C(C(=O)NC(C)C)=C3c2ccccc2)nc1` [Compound 81, 6-[2-(5-ethylpyridine-2-yl)ethoxy]-1-(trans-methylimino-N-oxy)-3-phenyl-1H-indene-2-carboxylate isopropyl amide], it took 45 nM to reach a half-maximal effect at human PPARγ (EC50).
`CC(C)NC(=O)C1=C(c2ccccc2)c2ccc(OCCc3ccccn3)cc2/C1=[N+](/C)[O-]` [Compound 80, 1-(trans-methylimino-N-oxy)-3-phenyl-6-(2-pyridine-2-ylethoxy)-1H-indene-2-carboxylate isopropyl amide] yielded a melting point of 124 to 126 °C. It took 100 nM to reach a half-maximal effect on human PPARγ (EC50).
On human PPARγ, `CCOC(=O)C1=C(c2ccccc2)c2ccc(COCCc3ccccc3)cc2/C1=[N+](/C)[O-]` [Compound 43, 1-(trans-methylimino-N-oxy)-6-phenethyloxymethyl-3-phenyl-1H-indene-2-carboxylate ethyl ester] gave an EC50 of 80 nM.
Still for that read-out and setting: to `CCOC(=O)C1=C(c2ccccc2)c2ccc(OCCc3ccc(CC)cn3)cc2/C1=[N+](/C)[O-]` [Compound 79, 6-[2-(5-ethylpyridine-2-yl)ethoxy]-1-(trans-methylimino-N-oxy)-3-phenyl-1H-indene-2-carboxylate ethyl ester] belongs 20 nM.
Turning to `CN(CCOc1ccc(CC2SC(=O)NC2=O)cc1)c1ccccn1` (centres unmarked) [Rosiglitazone, reference compound], in data set [1], the GOT is 70 ± 8.2 karmen, the GPT was 85 ± 12/ karmen, the “Heart Weight” value is reported as 0.140 ± 0.009 g and the “Liver Weight” value is listed as 1.56 ± 0.18 g. In data set [1], the Weight is 39 ± 1.6 g.
Compound `CCOC(=O)C1=C(C2CC2)c2ccc(OCCCc3ccccc3)cc2/C1=[N+](/C)[O-]` [Compound 68, 3-cyclopropyl-1-(trans-methylimino-N-oxy)-6-(3-phenylpropoxy)-1H-indene-2-carboxylate ethyl ester] came in with an EC50 at human PPARγ of 10 nM.
Regarding `CC(C)NC(=O)C1=C(c2ccccc2)c2cc(OCCc3ccccn3)ccc2/C1=[N+](/C)[O-]` [Compound 99, 1-(trans-methylimino-N-oxy)-3-phenyl-5-(2-pyridine-2-ylethoxy)-1H-indene-2-carboxylate isopropyl amide], the melting point lay within 158 to 159 °C.
Compound `CCOC(=O)C1=C(c2ccccc2)c2ccc(OCCCCCc3ccccc3)cc2/C1=[N+](/C)[O-]` [Compound 15, 1-(trans-methylimino-N-oxy)-3-phenyl-6-(5-phenylpentyloxy)-1H-indene-2-carboxylate ethyl ester] had an EC50 on human PPARγ of 150 nM.
`CC(C)NC(=O)C1=C(c2csc3ccccc23)c2ccc(OCCN3CCOCC3)cc2/C1=[N+](/C)[O-]` [Compound 94, 3-benzo-[b]-thiophene-3-yl-1-(trans-methylimino-N-oxy)-6-(2-morpholine-4-ylethoxy)-1H-indene-2-carboxylate isopropyl amide] showed a melting point of 77 to 79 °C. The midpoint of the response at human PPARγ, the EC50, lay at 80 nM.
For `CC(C)OC(=O)C1=C(c2ccccc2)c2ccc(OCCN3CCOCC3)cc2/C1=[N+](\C)[O-]` [Compound 101, 1-(cis-methylimino-N-oxy)-6-(2-morpholine-4-ylethoxy)-3-phenyl-1H-indene-2-carboxylate isopropyl ester], the melting point fell in the range of 153 to 155 °C.
As for `CCOC(=O)C1=C(c2ccccc2)c2ccc(OCCN3CCOCC3)cc2/C1=[N+](\C)[O-]` [Compound 45, 1-(cis-methylimino-N-oxy)-6-(2-morpholine-4-ylethoxy)-3-phenyl-1H-indene-2-carboxylate ethyl ester], the melting point lay in the range of 151 to 152 °C.
At human PPARγ, `C/[N+]([O-])=C1\C(C(=O)NC2CCCCC2)=C(c2ccccc2)c2ccc(OCCN3CCOCC3)cc21` [Compound 41, 1-(trans-methylimino-N-oxy)-6-(2-morpholine-4-yl-ethoxy)-3-phenyl-1H-indene-2-carboxylate cyclohexyl amide] gave an EC50 of 12 nM.
For the compound `CC(C)NC(=O)C1=C(c2ccccc2)c2cc(OCCN3CCOCC3)ccc2/C1=[N+](/C)[O-]` [Compound 100, 1-(trans-methylimino-N-oxy)-5-(2-morpholine-4-ylethoxy)-3-phenyl-1H-indene-2-carboxylate isopropyl amide], the melting point lay within 134 to 137 °C.
`CCOC(=O)C1=C(c2ccccc2)c2ccc(CN3CCOCC3)cc2/C1=[N+](/C)[O-]` [Compound 77, 1-(trans-methylimino-N-oxy)-6-morpholine-4-ylmethyl-3-phenyl-1H-indene-2-carboxylate ethyl ester] registered an EC50 at human PPARγ of 170 nM.
In turn, `CCOC(=O)C1=C(c2ccccc2)c2ccc(OCCN3CCOCC3)cc2/C1=[N+](/C)[O-]` [Compound 33, 1-(trans-methylimino-N-oxy)-6-(2-morpholine-4-ylethoxy)-3-phenyl-1H-indene-2-carboxylate ethyl ester] displayed a melting point of 102 to 104 °C.
On human PPARγ, `CC(C)NC(=O)C1=C(c2ccccc2)c2ccc(OCCCc3ccccc3)cc2/C1=[N+](/C)[O-]` [Compound 38, 1-(trans-methylimino-N-oxy)-3-phenyl-6-(3-phenylpropoxy)-1H-indene-2-carboxylate isopropyl amide] yielded a half-maximal effective concentration (EC50) of 170 nM.
Compound `C/[N+]([O-])=C1\C(C(N)=O)=C(c2ccccc2)c2ccc(OCCCc3ccccc3)cc21` [Compound 73, 1-(trans-methylimino-N-oxy)-3-phenyl-6-(3-phenylpropoxy)-1H-indene-2-carboxylate amide] registered an EC50 on human PPARγ of 110 nM.
The same measure, in the same setting: to `CCOC(=O)C1=C(c2ccccc2)c2ccc(OCCC3CCCCC3)cc2/C1=[N+](/C)[O-]` [Compound 25, 6-(2-cyclohexylethoxy)-1-(trans-methylimino-N-oxy)-3-phenyl-1H-indene-2-carboxylate ethyl ester] belongs 50 nM.
In turn, `CC(C)NC(=O)C1=C(c2ccccc2)c2ccc(OCCN3CCOCC3)cc2/C1=[N+](/C)[O-]` [Compound 50, 1-(trans-methylimino-N-oxy)-6-(2-morpholine-4-ylethoxy)-3-phenyl-1H-indene-2-carboxylate isopropyl amide] displayed a melting point of 123 to 125 °C. Also, on human PPARγ, the EC50 worked out at 200 nM.
In turn, `C/[N+]([O-])=C1\C=C(c2ccccc2)c2ccc(OCCN3CCOCC3)cc21` [Compound 82, methyl-[6-(2-morpholine-4-ylethoxy)-3-phenylindene-1-yllidene]amine-N-oxide] gave a melting point of 122 to 123 °C.
Regarding `CCOC(=O)C1=C(c2ccccc2)c2cc3c(cc2/C1=[N+](/C)[O-])OCO3` [Compound 48, 1-(trans-methylimino-N-oxy)-5,6-methylenedioxy-1-oxo-3-phenyl-1H-indene-2-carboxylate ethyl ester], the melting point is 119 to 121 °C. Besides, the EC50 at human PPARγ was 10 nM.
Compound `C/[N+]([O-])=C1\C(C#N)=C(c2ccccc2)c2ccc(OCCCc3ccccc3)cc21` [Compound 75, 1-(trans-methylimino-N-oxy)-3-phenyl-6-(3-phenylpropoxy)-1H-indene-2-carbonitrile] displayed a melting point of 126 to 128 °C. This compound also showed an EC50 at human PPARγ of 95 nM.
Compound `C/[N+]([O-])=C1\C(C(=O)NC2CCCCC2)=C(c2ccccc2)c2ccc(OCCCc3ccccc3)cc21` [Compound 39, 1-(trans-methylimino-N-oxy)-3-phenyl-6-(3-phenylpropoxy)-1H-indene-2-carboxylate cyclohexyl amide] gave an EC50 at human PPARγ of 45 nM.
On human PPARγ, `CCOC(=O)C1=C(c2ccccc2)c2cc(OCCCc3ccccc3)ccc2/C1=[N+](/C)[O-]` [Compound 42, 1-(trans-methylimino-N-oxy)-3-phenyl-5-(3-phenylpropoxy)-1H-indene-2-carboxylate ethyl ester] yielded an EC50 of 80 nM.
